# Test results as given in US20090170867A1, “TRPV1 ANTAGONISTS INCLUDING SULFONAMIDE SUBSTITUENT AND USES THEREOF” (Shionogi & Co., Ltd., priority 2007, published 2009).
# Read-outs that look alike come from different tables or passages of the source.
# Key:
# Aqueous solubility = type: physicochemical; conditions: aqueous solution
# human TRPV1 [1] = molecular target: T1, human TRPV1 (Homo sapiens, UniProt Q8NER1); experiment: pH-based assay, Protocol 2 (TRPV1/CHO cells, Fura-2 AM, FDSS-3000, pH 5.0-5.1); type: cell-based; conditions: H2SO4 agonist, mean ± SEM, number of trials in parentheses, read-out: TRPV1 IC50 Potency, Human pH CHO (hpH-CHO)
# T1 construct: using primers designed surrounding the complete hTRPV1 open reading frame; expressed in transfected cells; host or cells: CHO-K1 cells stably transfected with pcDNA3.1(-)-hVR1 plasmid
# T1 sequence (Q8NER1 whole entry): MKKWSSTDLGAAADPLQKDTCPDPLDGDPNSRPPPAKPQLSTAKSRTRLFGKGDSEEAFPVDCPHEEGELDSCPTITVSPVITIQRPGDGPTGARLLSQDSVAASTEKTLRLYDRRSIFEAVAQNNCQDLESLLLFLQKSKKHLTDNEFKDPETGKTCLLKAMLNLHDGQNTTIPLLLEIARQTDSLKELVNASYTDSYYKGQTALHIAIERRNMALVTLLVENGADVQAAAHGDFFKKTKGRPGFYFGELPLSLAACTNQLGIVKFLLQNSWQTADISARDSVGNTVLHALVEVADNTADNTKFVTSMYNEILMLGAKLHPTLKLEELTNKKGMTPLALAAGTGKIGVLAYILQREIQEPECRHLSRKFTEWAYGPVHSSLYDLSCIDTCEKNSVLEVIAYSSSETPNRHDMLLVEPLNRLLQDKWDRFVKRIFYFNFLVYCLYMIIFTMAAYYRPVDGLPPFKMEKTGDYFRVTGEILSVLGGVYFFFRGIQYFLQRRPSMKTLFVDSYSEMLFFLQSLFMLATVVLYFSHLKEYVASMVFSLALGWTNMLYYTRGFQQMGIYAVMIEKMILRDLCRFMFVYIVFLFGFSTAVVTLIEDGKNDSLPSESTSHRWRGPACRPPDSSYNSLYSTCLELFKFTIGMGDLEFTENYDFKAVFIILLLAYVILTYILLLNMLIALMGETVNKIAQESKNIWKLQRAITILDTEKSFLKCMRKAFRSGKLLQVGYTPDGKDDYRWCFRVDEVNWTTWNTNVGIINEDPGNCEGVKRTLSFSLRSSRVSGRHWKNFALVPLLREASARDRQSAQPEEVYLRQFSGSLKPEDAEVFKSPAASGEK
# Excerpt: For Protocol 2, a Chinese Hamster Ovary cell line (CHO) that has been engineered to constitutively express human recombinant TRPV1 was used (TRPV1/CHO cells). The TRPV1/CHO cell line was generated as described below.
# The resulting PCR products were purified from agarose gels using Gel Band Purification Kit (GE Healthcare Bioscience) and were subcloned into pCR-Blunt vector (Invitrogen). The cloned cDNA was fully sequenced using a fluorescent dye-terminator reagent (BigDye Terminator ver3.1 Cycle Sequencing Kit, Applied Biosystems) and ABI Prism 3100 genetic analyzer (Applied Biosystems). The pCR-Blunt vector containing the hTRPV1 cDNA was subjected to restriction digestion with EcoRI. The restriction fragment was subcloned into expression vector pcDNA3.1 (−) (Invitrogen) and named pcDNA3.1 (−)-hVR1 plasmid. The sequence of the cDNA encoding TRPV1 is available at GenBank accession number AJ277028.
# CHO-K1 cells were maintained in growth medium consisting of α-MEM, 10% FBS (Hyclone), and 100 IU/mL of penicillin-100 μg/mL of streptomycin mixed solution (Nacalai Tesque, Japan) at 37° C. in an environment of humidified 95% air and 5% CO2. The cells were transfected with the pcDNA3.1 (−)-hVR1 plasmid using FuGENE6 (Roche) according to the manufacturer's protocol. 24 hr after transfection, neomycin-resistant cells were selected using 1 mg/mL G418 (Nacalai Tesque). After 2 weeks, individual colonies were picked, expanded, and screened for the expression of hTRPV1 in the capsaicin-induced Ca^2+ influx assay (see below) with a FLIPR (Molecular Devices). A clone with the largest Ca^2+ response to capsaicin was selected and re-cloned by the same procedure. The cells expressing hTRPV1 were cultured in the growth medium supplemented with 1 mg/mL G418.
# TRPV1/CHO cells were seeded in the 96-well clear-bottom black-wall plate (Nunc) at densities of 1-2×10^4 cells/well and grown in 100 μL of culture medium (alpha-MEM supplemented with 10% FBS, 20 mM HEPES, 1 mg/mL geneticin and 1% antibiotic-antimycotic mixed stock solution) for 1-2 days before the experiment.
# Different agonist solutions with sulfuric acid concentrations of from 15 mM to 18 mM (see FIG. 1) were prepared by diluting 1M sulfuric acid with measuring buffer. The different sulfuric acid concentrations in the agonist solutions were selected such that a 1:4 dilution would result in a final sulfuric acid concentration of between 3.0 mM to 3.6 mM, respectively, as indicated in FIG. 1.
# The cells were stimulated using 3.0 mM (well number B1-6), 3.1 mM (C1-6), 3.2 mM (D1-6), 3.3 mM (E1-6), 3.4 mM (F1-6), 3.5 mM (G1-6), or 3.6 mM (H1-6) H2SO4 or pH 7.2 measuring buffer without H2SO4 (A1-6) (FIG. 2).
# (1) Culture medium was removed using an 8-channel-pipette (Rainin, USA) from the 96-well plate and the wells were refilled with 100 μL of loading buffer (20 mM HEPES, 115 mM NaCl, 5.4 mM KCl, 0.8 mM MgCl2, 1.8 mM CaCl2, 13.8 mM D-glucose, 2.5 mM probenecid, pH 7.4) containing 5 μM Fura-2 AM (Dojin, Japan).
# (2) The 96-well plate was incubated at 37° C. for 45 min.
# (3) The loading buffer was removed from each well. The cells were subsequently washed twice with 150 μL of measuring buffer (20 mM HEPES, 115 mM NaCl, 5.4 mM KCl, 0.8 mM MgCl2, 5.0 mM CaCl2, 13.8 mM D-glucose, 0.1% BSA, pH 7.4) (no probenecid). The wells were then refilled with 80 μL of measuring buffer.
# (4) After an incubation at 4° C. for 15 min, the 96-well plate was transferred to FDSS-3000 (Hamamatsu Photonics, Japan).
# (5) The Fura-2 fluorescent intensity was monitored at a wavelength of 340 nm and at 380 nm, respectively, at a rate of 0.5 Hz for a total of 240 seconds.
# human TRPV1 [2] = molecular target: T1, human TRPV1; experiment: Capsaicin-based assay, Protocol 2 (TRPV1/CHO cells, Fluo-4, FLIPR); type: cell-based; conditions: capsaicin 100 nM final, mean ± SEM, number of trials in parentheses, read-out: TRPV1 IC50 Potency, Human Capsaicin CHO (hCAP-CHO)
# Procedure, shortened: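 CHO cells stably transfected with human TRPV1 cDNA, kept under G418 selection, loaded with 3 μM Fluo-4 for 1 h. Calcium fluorescence followed on FLIPR after a 15 s baseline against capsaicin challenge; compounds at final 100 μM to 1.5625 μM, curves fitted over the full time course.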
# [3] = pH 1.2, simulated gastric fluid, read-out: aqueous solubility at pH 1.2
# [4] = pH 6.8, aqueous buffer, read-out: aqueous solubility at pH 6.8
Compound,solubility (Aqueous solubility; [3]) [µM],solubility (Aqueous solubility; [4]) [µM],IC50 (human TRPV1 [1]) [µM],IC50 (human TRPV1 [2]) [µM]
O=C(O)Cc1cnc(C2=CCN(C(=O)Nc3ccc(C(F)(F)F)cc3)CC2)c(Cl)c1 [Compound G6],> 50,> 50,,> 25
O=C(Nc1ccc(C(F)(F)F)cc1)N1CC=C(c2ncccc2Cl)CC1 [Compound 200],< 0.1,< 0.1,,
CN(C)Cc1cnc(C2=CCN(C(=O)Nc3ccc(C(F)(F)F)cc3)CC2)c(Cl)c1 [Compound H6],> 50,> 50,,0.924
"O=C(Nc1ccc(C(F)(F)F)c(F)c1)N1CC=C(c2ncc([C@H](O)CO)cc2Cl)CC1 [Compound S1, (S)-3-Chloro-5-(1,2-dihydroxy-ethyl)-3′,6′-dihydro-2′H-[2,4′]bipyridinyl-1′-carboxylic acid (3-fluoro-4-trifluoromethyl-phenyl)amide]",> 50,> 50,0.0163 ± 0.002,0.0535 ± 0.0163
"O=C(Nc1ccc(C(F)(F)F)cc1)N1CC=C(c2ncc([C@H](O)CO)cc2Cl)CC1 [Compound Z1, (S)-3-Chloro-5-(1,2-dihydroxy-ethyl)-3′,6′-dihydro-2′H-[2,4′]bipyridinyl-1′-carboxylic acid (4-trifluoromethyl-phenyl)amide]",> 50,> 50,0.0116 ± 0.0007,0.0758 ± 0.0124
O=C(Nc1nc2ccc(F)cc2s1)N1CCC(F)(c2ncccc2Cl)CC1 [Compound 206],,,1.46,0.508
COCc1cnc(C2=CCN(C(=O)Nc3ccc(C(F)(F)F)cc3)CC2)c(Cl)c1 [Compound F3],,,0.585,0.916 ± 0.306
"N#CCc1cnc(C2=CCN(C(=O)Nc3ccc(C(F)(F)F)cc3)CC2)c(Cl)c1 [Compound E6, 4-(3-chloro-5-(cyanomethyl)pyridin-2-yl)-N-(4-(trifluoromethyl)phenyl)-5,6-dihydropyridine-1(2H)-carboxamide]",27.2,9,,0.265
O=C(Nc1ccc(C(F)(F)F)cc1)N1CCC(F)(c2ncc([C@H](O)CO)cc2F)CC1 [Compound N6],> 50,> 50,,
"CC(C)(C)c1ccc(NC(=O)N2CC=C(c3ncc([C@H](O)CO)cc3Cl)CC2)cc1 [Compound I1, (S)-3-Chloro-5-(1,2-dihydroxy-ethyl)-3′,6′-dihydro-2′H-[2,4′]bipyridinyl-1′-carboxylic acid (4-tert-butyl-phenyl)amide]",,,0.0011 ± 0.0002,0.0338 ± 0.0091
O=C(Nc1nc2ccc(F)cc2s1)N1CCC(F)(c2ncc([C@@H](O)CO)cc2Cl)CC1 [Compound H4],,,0.097 ± 0.0099,0.176 ± 0.0284
O=C(Nc1ccc(OC(F)(F)F)c(Br)c1)N1CC=C(c2ncc(CO)cc2Cl)CC1 [Compound R2],,,0.0496 ± 0.0034,0.2 ± 0.0268
"O=C(Nc1ccc(C(F)(F)F)c(Cl)c1)N1CC=C(c2ncc([C@H](O)CO)cc2Cl)CC1 [Compound D2, (S)-3-Chloro-5-(1,2-dihydroxy-ethyl)-3′,6′-dihydro-2′H-[2,4′]bipyridinyl-1′-carboxylic acid (3-chloro-4-trifluoromethyl-phenyl)amide]",,,0.0108 ± 0.0009,0.0853 ± 0.0207

# Further compounds by falling IC50 (human TRPV1 [2]), results first:
solubility (Aqueous solubility; [3]) [µM],solubility (Aqueous solubility; [4]) [µM],IC50 (human TRPV1 [1]) [µM],IC50 (human TRPV1 [2]) [µM],Compound
,,0.0859 ± 0.0218,0.194 ± 0.0271,O=C(Nc1ccc(OC(F)(F)F)cc1)N1CC=C(c2ncc(CO)cc2Cl)CC1 [Compound Q2]
,,0.154,0.167,O=C(Nc1ccc(C(F)(F)F)cn1)N1CCC(F)(c2ncccc2Cl)CC1 [Compound 204]
,,0.0188 ± 0.004,0.162 ± 0.0295,CCCOc1cc(NC(=O)N2CC=C(c3ncc(CO)cc3Cl)CC2)ccc1C(F)(F)F [Compound O2]
,,0.0338,0.133 ± 0.0285,O=C(Nc1ccc(Cl)c(C(F)(F)F)c1)N1CCC(F)(c2ncc([C@H](O)CO)cc2F)CC1 [Compound E5]
,,0.185,0.131,O=C(Nc1ccc(C(F)(F)F)cn1)N1CC=C(c2ncccc2Cl)CC1 [Compound 201]
> 50,> 50,0.0417 ± 0.0044,0.129 ± 0.026,O=C(Nc1ccc(C(F)(F)F)cc1)N1CC=C(c2ncc(CO)cc2Cl)CC1 [Compound J2]
> 50,38.2,0.0848 ± 0.0088,0.112 ± 0.0223,CC(O)c1cnc(C2=CCN(C(=O)Nc3ccc(C(F)(F)F)cc3)CC2)c(Cl)c1 (centres unmarked) [Compound G2]
,,0.0399 ± 0.0079,0.108 ± 0.0384,COc1cc(NC(=O)N2CCC(F)(c3ncc([C@H](O)CO)cc3F)CC2)ccc1C(F)(F)F [Compound C5]
> 50,> 50,0.0203 ± 0.0017,0.107 ± 0.0188,O=C(Nc1ccc(OC(F)(F)F)cc1)N1CC=C(c2ncc([C@H](O)CO)cc2Cl)CC1 [Compound E2]
> 50,> 50,0.0147 ± 0.0033,0.0613 ± 0.0225,O=C(Nc1ccc(C(F)(F)F)cc1)N1CC=C(c2ncc([C@H](O)CO)cc2F)CC1 [Compound U1]
> 50,17.4,,0.0439 ± 0.01,O=C(Nc1ccc(C(F)(F)F)c(F)c1)N1CCC(F)(c2ncc([C@H](O)CO)cc2F)CC1 [Compound Y3]
,,0.0149 ± 0.0022,0.0329 ± 0.0118,"O=C(Nc1ccc(Cl)c(C(F)(F)F)c1)N1CCN(c2ncc([C@H](O)CO)cc2Cl)CC1 [Compound W6, (S)—N-(4-chloro-3-(trifluoromethyl)phenyl)-4-(3-chloro-5-(1,2-dihydroxyethyl)pyridin-2-yl)piperazine-1-carboxamide]"
> 50,> 50,,0.0317 ± 0.0089,O=C(Nc1ccc(S(=O)(=O)C(F)(F)F)cc1)N1CCC(F)(c2ncc([C@H](O)CO)cc2Cl)CC1 [Compound H1]
> 50,26.4,0.0135,0.0279 ± 0.0099,O=C(Nc1ccc(C(F)(F)F)c(Cl)c1)N1CC=C(c2ncc([C@H](O)CO)cc2F)CC1 [Compound U3]
> 50,22.6,0.009 ± 0.0023,0.0186 ± 0.0068,O=C(Nc1ccc(C(F)(F)F)c(F)c1)N1CCC(F)(c2ncc([C@H](O)CO)cc2Cl)CC1 [Compound F1]
,,0.0062,0.016 ± 0.0016,"O=C(Nc1nc2ccc(F)cc2s1)N1CCN(c2ncc([C@H](O)CO)cc2Cl)CC1 [Compound V6, (S)-4-(3-chloro-5-(1,2-dihydroxyethyl)pyridin-2-yl)-N-(6-fluorobenzo[d]thiazol-2-yl)piperazine-1-carboxamide]"
> 50,15.7,0.0113 ± 0.0008,0.0153 ± 0.0069,O=C(Nc1ccc(OC(F)(F)F)cc1)N1CCC(F)(c2ncc([C@H](O)CO)cc2Cl)CC1 [Compound C1]
